In patent US20260078135A1, “POLYCYCLIC QUINAZOLINES FOR INHIBITION OF ERBB2” (Enliven Inc., priority 2022, published 2026):

How the values were obtained:
[1] = target: T1, phosphorylated EGFR (pEGFR) (Homo sapiens, UniProt P00533); assay: Detection of phosphorylated EGFR (pEGFR) by AlphaLISA in EGF-stimulated A431 cells; format: cell-based; conditions: A431 cells (10% FBS), 4 hours incubation, EGF 30 ng/mL for 10 minutes
T1 construct: performed to measure phosphorylated EGFR levels using A431 cells (10% FBS); endogenous in cells; host or cells: A431
T1 sequence (P00533 25-1210): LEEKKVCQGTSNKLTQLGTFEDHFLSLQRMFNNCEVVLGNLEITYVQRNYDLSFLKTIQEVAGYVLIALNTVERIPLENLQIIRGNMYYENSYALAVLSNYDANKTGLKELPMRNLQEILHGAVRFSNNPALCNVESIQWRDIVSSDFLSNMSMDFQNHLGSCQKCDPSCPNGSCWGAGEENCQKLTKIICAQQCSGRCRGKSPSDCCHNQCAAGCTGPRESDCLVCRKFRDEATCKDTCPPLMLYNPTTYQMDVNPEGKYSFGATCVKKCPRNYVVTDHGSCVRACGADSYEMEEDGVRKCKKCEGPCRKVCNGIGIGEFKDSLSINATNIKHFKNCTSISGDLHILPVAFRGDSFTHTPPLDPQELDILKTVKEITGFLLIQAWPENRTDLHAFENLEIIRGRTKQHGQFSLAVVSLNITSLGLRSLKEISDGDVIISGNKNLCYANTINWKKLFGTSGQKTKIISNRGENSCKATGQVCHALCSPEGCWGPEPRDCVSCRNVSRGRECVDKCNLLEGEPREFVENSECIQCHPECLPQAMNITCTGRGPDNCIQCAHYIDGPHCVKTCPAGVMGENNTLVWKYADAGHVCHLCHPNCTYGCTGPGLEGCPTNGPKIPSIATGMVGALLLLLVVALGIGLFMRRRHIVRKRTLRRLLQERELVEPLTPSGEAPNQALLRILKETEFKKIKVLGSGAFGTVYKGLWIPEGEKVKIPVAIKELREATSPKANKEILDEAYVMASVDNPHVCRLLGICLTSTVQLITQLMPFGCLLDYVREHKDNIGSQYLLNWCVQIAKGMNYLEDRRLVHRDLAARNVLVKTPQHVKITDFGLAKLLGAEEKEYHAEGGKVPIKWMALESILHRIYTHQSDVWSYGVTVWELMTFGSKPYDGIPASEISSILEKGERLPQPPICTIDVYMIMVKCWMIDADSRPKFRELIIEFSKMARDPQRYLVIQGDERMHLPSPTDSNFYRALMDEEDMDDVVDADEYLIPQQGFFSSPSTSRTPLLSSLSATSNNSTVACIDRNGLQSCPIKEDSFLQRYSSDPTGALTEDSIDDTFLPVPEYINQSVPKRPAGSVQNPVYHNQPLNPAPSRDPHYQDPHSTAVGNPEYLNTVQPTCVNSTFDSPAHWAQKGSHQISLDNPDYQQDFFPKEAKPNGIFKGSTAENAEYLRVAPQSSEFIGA
In short: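 A431 cells in 10% FBS were preincubated with compound for 4 h at 37 °C, then stimulated with 30 ng/mL EGF for 10 min and lysed. pEGFR read by AlphaLISA. % inhibition normalised to DMSO and staurosporine controls; IC50 from four-parameter curve fit.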

Ba/F3 ERBB2 YVMA = Ba/F3 ERBB2 YVMA (Homo sapiens, UniProt P04626, DUP772-775, cells depend on it); assay: Cell viability assay (CellTiter Glo), Ba/F3 cells engineered to express ERBB2 YVMA; format: cell-based, mouse; conditions: Ba/F3 cells expressing human ERBB2 YVMA mutant, 72 hours, read-out: Ba/F3 ERBB2 YVMA, IC50
Sequence of Ba/F3 ERBB2 YVMA (P04626 with tags, fused parts or gaps DUP772-775): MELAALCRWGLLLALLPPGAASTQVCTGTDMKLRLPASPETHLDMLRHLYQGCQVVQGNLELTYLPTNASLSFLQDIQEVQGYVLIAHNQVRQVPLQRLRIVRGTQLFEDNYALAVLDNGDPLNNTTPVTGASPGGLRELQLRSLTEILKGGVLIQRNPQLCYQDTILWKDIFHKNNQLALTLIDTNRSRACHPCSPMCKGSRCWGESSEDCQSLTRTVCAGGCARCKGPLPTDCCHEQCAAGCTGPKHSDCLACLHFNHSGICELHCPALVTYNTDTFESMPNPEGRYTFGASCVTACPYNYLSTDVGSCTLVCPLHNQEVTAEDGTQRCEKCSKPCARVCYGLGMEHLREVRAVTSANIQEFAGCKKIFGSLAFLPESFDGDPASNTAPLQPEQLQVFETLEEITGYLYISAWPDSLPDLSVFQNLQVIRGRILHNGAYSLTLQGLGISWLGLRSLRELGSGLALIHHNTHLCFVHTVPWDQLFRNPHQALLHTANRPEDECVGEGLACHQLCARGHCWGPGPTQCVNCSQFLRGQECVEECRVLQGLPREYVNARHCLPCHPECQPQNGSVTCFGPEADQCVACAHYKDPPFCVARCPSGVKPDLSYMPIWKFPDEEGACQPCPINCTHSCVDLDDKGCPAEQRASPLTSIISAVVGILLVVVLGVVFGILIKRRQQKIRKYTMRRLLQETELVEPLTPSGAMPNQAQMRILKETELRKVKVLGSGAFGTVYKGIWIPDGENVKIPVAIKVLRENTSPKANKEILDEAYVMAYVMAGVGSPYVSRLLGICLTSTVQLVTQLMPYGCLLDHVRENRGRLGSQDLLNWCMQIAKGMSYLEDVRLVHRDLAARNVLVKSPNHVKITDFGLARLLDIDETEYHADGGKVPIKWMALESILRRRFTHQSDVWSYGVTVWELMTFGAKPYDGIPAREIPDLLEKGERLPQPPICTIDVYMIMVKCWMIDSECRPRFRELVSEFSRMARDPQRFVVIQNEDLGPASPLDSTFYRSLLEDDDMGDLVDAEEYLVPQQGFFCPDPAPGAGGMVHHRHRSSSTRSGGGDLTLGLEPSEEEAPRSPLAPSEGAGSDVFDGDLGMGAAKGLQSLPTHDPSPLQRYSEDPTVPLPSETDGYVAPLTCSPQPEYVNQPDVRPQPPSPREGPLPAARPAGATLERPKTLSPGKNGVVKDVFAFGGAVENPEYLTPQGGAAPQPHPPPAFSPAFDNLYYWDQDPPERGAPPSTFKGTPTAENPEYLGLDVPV
In short: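 Ba/F3 cells (IL-3-independent via stable retroviral human ERBB2 YVMA) seeded 3000/well and given compound from about 10 μM to 0.51 nM in three-fold steps, DMSO ≤0.1%, 72 h at 37° C. Viability by CellTiter Glo luminescence, normalized to DMSO and media-only controls. Sigmoidal nonlinear fit.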

[2] = target: T2, phosphorylated ERBB2 (pERBB2) (Homo sapiens, UniProt P04626); assay: Detection of phosphorylated ERBB2 (pERBB2) by ELISA in BT-474 cells; format: cell-based; conditions: four hour incubation
T2 construct: endogenous in cells; host or cells: BT-474
T2 sequence (P04626 23-1255): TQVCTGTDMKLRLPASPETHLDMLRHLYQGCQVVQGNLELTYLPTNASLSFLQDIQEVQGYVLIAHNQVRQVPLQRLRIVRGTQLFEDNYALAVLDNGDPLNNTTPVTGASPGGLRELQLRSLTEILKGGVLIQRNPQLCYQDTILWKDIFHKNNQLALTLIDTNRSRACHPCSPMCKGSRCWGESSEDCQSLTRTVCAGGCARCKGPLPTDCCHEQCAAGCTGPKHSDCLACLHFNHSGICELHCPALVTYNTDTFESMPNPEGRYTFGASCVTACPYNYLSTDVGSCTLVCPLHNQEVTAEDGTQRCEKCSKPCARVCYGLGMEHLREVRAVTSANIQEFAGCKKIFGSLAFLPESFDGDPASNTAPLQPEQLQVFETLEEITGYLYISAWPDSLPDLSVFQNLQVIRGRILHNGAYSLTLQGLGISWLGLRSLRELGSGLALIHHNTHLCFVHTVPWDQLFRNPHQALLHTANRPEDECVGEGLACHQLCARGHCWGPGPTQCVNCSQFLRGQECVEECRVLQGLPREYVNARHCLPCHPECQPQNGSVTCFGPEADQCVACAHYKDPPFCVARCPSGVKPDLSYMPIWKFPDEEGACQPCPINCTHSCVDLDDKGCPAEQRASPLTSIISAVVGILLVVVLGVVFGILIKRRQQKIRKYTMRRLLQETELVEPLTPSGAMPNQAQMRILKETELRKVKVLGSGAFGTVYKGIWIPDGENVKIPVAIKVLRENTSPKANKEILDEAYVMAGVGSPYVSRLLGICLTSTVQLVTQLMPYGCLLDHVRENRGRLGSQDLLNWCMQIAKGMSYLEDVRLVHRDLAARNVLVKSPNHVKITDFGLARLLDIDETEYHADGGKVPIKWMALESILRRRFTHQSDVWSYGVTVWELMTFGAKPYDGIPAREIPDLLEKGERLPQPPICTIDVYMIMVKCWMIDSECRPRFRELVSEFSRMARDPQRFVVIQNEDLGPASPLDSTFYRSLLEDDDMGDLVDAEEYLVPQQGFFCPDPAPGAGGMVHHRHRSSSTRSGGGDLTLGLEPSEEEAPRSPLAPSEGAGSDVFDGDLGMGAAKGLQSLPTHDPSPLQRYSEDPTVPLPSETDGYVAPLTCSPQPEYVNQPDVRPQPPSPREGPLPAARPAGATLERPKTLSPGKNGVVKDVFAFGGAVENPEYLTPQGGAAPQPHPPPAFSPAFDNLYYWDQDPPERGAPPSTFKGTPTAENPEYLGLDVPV
In short: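 BT-474 cells were treated with compounds (fourfold dilutions, 10 μM to 0.01 nM final) for 4 h at 37 °C, then lysed. pERBB2 in lysates was quantified by ELISA with an HRP anti-phosphotyrosine detection antibody and TMB read at 450 nm; % relative activity was normalized to no-cell and 0.1% DMSO controls.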

IC50 [1]	IC50 [2]	SMILES	GI50 (Ba/F3 ERBB2 YVMA)
1.95 µM	29 nM	CN(C)C/C=C/C(=O)N1CCN2c3ccc4ncnc(Nc5ccc(Oc6ccn7ncnc7c6)cc5F)c4c3OC[C@H]2C1 [Compound 119, (R,E)-1-(4-((4-([1,2,4]triazolo[1,5-a]pyridin-7-yloxy)-2-fluorophenyl)amino)-6a,7,9,10-tetrahydropyrazino[1′,2′:4,5][1,4]oxazino[2,3-f]quinazolin-8(6H)-yl)-4-(dimethylamino)but-2-en-1-one]	11.7 nM
> 10 µM	26.4 nM	Cc1cc(Nc2ncnc3cnc4c(c23)OC[C@H]2CN(C)CCN42)ccc1Oc1ccc2c(c1)ncn2C [Compound 120, (R)-8-methyl-N-(3-methyl-4-((1-methyl-1H-benzo[d]imidazol-5-yl)oxy)phenyl)-6,6a,7,8,9,10-hexahydropyrazino[1,2-d]pyrimido[5′,4′:4,5]pyrido[3,2-b][1,4]oxazin-4-amine]	44.3 nM
> 10 µM	27.2 nM	Cc1cc(Nc2ncnc3cc4c(cc23)N2CCOC[C@H]2CO4)ccc1Oc1ccc2c(c1)ncn2C [Compound 121, (S)—N-(3-methyl-4-((1-methyl-1H-benzo[d]imidazol-5-yl)oxy)phenyl)-1,2,4a,5-tetrahydro-4H-[1,4]oxazino[4′,3′:4,5][1,4]oxazino[3,2-g]quinazolin-11-amine]	71 nM
> 10 µM	26.4 nM	Cc1cc(Nc2ncnc3cnc4c(c23)OC[C@H]2COCCN42)ccc1Oc1ccc2c(c1)ncn2C [Compound 122, (R)—N-(3-methyl-4-((1-methyl-1H-benzo[d]imidazol-5-yl)oxy)phenyl)-6a,7,9,10-tetrahydro-6H-[1,4]oxazino[4,3-d]pyrimido[5′,4′:4,5]pyrido[3,2-b][1,4]oxazin-4-amine]	30.9 nM
> 10 µM	58 nM	Cc1cc(Nc2ncnc3ccc4c(c23)O[C@H]2CCN(C)C[C@H]2N4)ccc1Oc1ccc2c(c1)ncn2C [Compound 125, (7aR,11aS)-9-methyl-N-(3-methyl-4-((1-methyl-1H-benzo[d]imidazol-5-yl)oxy)phenyl)-7a,8,9,10,11,11a-hexahydro-7H-pyrido[3′,4′:5,6][1,4]oxazino[2,3-f]quinazolin-1-amine]	164 nM
> 10 µM	828 nM	Cc1cc(Nc2ncnc3cc4c(nc23)N2CCN(C)C[C@H]2CO4)ccc1Oc1cc2ncn(C)c2cn1 [Compound 127, (S)-3-methyl-N-(3-methyl-4-((3-methyl-3H-imidazo[4,5-c]pyridin-6-yl)oxy)phenyl)-1,2,3,4,4a,5-hexahydropyrazino[1,2-d]pyrimido[4′,5′:5,6]pyrido[3,2-b][1,4]oxazin-11-amine]	> 500 nM
> 10 µM	35.3 nM	Cc1cc(Nc2ncnc3cnc4c(c23)OC[C@H]2CN(C)CCN42)ccc1Oc1cc2ncn(C)c2cn1 [Compound 128, (R)-8-methyl-N-(3-methyl-4-((3-methyl-3H-imidazo[4,5-c]pyridin-6-yl)oxy)phenyl)-6,6a,7,8,9,10-hexahydropyrazino[1,2-d]pyrimido[5′,4′:4,5]pyrido[3,2-b][1,4]oxazin-4-amine]	211 nM
> 10 µM	65 nM	Cc1cc(Nc2ncnc3cnc4c(c23)OC[C@H]2CNCCN42)ccc1Oc1ccc2c(c1)ncn2C [Compound 130, (R)—N-(3-methyl-4-((1-methyl-1H-benzo[d]imidazol-5-yl)oxy)phenyl)-6,6a,7,8,9,10-hexahydropyrazino[1,2-d]pyrimido[5′,4′:4,5]pyrido[3,2-b][1,4]oxazin-4-amine]	170 nM
> 10 µM	32.7 nM	Cc1cc(Nc2ncnc3cnc4c(c23)O[C@H]2CCN(C)C[C@H]2N4C)ccc1Oc1ccc2c(c1)ncn2C [Compound 131, (7aR,11aS)-7,9-dimethyl-N-(3-methyl-4-((1-methyl-1H-benzo[d]imidazol-5-yl)oxy)phenyl)-7a,8,9,10,11,11a-hexahydro-7H-pyrido[4,3-b]pyrimido[5′,4′:4,5]pyrido[2,3-e][1,4]oxazin-1-amine]	87.1 nM
> 10 µM	307 nM	Cc1cc(Nc2ncnc3cnc4c(c23)O[C@H]2CCNC[C@H]2N4C)ccc1Oc1ccc2c(c1)ncn2C [Compound 132, (7aR,11aS)-7-methyl-N-(3-methyl-4-((1-methyl-1H-benzo[d]imidazol-5-yl)oxy)phenyl)-7a,8,9,10,11,11a-hexahydro-7H-pyrido[4,3-b]pyrimido[5′,4′:4,5]pyrido[2,3-e][1,4]oxazin-1-amine]	> 500 nM
> 10 µM	41.9 nM	Cc1cc(Nc2ncnc3cnc4c(c23)O[C@@H]2CCN(C)C[C@H]2N4C)ccc1Oc1ccc2c(c1)ncn2C [Compound 133, (7aR,11aR)-7,9-dimethyl-N-(3-methyl-4-((1-methyl-1H-benzo[d]imidazol-5-yl)oxy)phenyl)-7a,8,9,10,11,11a-hexahydro-7H-pyrido[4,3-b]pyrimido[5′,4′:4,5]pyrido[2,3-e][1,4]oxazin-1-amine]	60.1 nM
0.727 µM	113 nM	Cc1cc(Nc2ncnc3ccc4c(c23)O[C@@H]2CCNC[C@@H]2N4C)ccc1Oc1ccc2c(c1)ncn2C [Compound 134, (7aS,11aR)-7-methyl-N-(3-methyl-4-((1-methyl-1H-benzo[d]imidazol-5-yl)oxy)phenyl)-7a,8,9,10,11,11a-hexahydro-7H-pyrido[3′,4′:5,6][1,4]oxazino[2,3-f]quinazolin-1-amine]	> 500 nM
> 10 µM	56.1 nM	Cc1cc(Nc2ncnc3cnc4c(c23)O[C@@H]2CCNC[C@H]2N4C)ccc1Oc1ccc2c(c1)ncn2C [Compound 135, (7aR,11aR)-7-methyl-N-(3-methyl-4-((1-methyl-1H-benzo[d]imidazol-5-yl)oxy)phenyl)-7a,8,9,10,11,11a-hexahydro-7H-pyrido[4,3-b]pyrimido[5′,4′:4,5]pyrido[2,3-e][1,4]oxazin-1-amine]	88.9 nM
